Experimental findings from ChEMBL document CHEMBL1201862, “PubChem BioAssay data set” (2004) are described below.

The source made the active and inactive calls.

The target of assay [1] is T1, Sentrin-specific protease 7 (Homo sapiens, UniProt Q9BQF6).
T1 sequence (Q9BQF6 whole entry): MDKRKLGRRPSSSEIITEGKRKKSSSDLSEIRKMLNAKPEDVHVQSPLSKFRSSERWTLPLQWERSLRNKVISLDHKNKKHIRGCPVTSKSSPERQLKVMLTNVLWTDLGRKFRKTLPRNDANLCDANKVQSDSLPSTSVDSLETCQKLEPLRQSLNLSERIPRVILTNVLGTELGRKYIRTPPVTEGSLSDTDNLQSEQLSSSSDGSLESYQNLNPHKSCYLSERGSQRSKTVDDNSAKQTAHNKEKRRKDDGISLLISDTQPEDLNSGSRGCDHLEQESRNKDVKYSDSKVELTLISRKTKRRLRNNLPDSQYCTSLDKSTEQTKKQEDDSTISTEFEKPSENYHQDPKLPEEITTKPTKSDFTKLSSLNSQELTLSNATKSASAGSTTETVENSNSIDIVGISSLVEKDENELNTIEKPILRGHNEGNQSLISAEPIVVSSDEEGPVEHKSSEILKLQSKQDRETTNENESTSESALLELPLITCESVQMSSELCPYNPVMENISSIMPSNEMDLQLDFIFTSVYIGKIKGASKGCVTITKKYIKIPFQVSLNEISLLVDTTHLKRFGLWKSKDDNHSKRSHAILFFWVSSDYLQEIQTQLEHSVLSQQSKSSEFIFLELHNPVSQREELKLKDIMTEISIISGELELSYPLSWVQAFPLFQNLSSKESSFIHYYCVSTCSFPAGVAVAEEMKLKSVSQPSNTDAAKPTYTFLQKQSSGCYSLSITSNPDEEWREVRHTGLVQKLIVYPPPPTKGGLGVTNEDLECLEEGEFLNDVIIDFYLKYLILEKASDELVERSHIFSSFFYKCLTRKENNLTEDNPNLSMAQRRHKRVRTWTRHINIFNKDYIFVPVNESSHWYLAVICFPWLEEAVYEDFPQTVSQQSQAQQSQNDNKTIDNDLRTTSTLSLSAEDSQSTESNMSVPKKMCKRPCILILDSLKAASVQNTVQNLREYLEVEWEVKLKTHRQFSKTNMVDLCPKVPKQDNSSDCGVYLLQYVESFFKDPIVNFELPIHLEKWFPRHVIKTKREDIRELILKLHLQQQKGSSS
Kind of assay: SENP7 protease inhibitors, SAR follow-up, biochemical, luminescence (AID 504497). In kind it is functional.

Assay [2] has as its target T2, Sentrin-specific protease 8 (Homo sapiens, UniProt Q96LD8).
T2 sequence (Q96LD8 whole entry): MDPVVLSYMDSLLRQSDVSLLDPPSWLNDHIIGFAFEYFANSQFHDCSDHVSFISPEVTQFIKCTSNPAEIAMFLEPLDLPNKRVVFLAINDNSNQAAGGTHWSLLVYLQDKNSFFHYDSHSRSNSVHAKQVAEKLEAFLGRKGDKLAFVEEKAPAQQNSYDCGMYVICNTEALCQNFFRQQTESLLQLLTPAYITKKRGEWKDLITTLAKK
As to the kind of experiment: SENP8 protease inhibitors, SAR follow-up, biochemical, luminescence, set 2 (AID 588601). In kind it is functional.

Assay [3] addresses T3, Heat shock factor protein 1 (Mus musculus, UniProt P38532).
T3 sequence (P38532 whole entry): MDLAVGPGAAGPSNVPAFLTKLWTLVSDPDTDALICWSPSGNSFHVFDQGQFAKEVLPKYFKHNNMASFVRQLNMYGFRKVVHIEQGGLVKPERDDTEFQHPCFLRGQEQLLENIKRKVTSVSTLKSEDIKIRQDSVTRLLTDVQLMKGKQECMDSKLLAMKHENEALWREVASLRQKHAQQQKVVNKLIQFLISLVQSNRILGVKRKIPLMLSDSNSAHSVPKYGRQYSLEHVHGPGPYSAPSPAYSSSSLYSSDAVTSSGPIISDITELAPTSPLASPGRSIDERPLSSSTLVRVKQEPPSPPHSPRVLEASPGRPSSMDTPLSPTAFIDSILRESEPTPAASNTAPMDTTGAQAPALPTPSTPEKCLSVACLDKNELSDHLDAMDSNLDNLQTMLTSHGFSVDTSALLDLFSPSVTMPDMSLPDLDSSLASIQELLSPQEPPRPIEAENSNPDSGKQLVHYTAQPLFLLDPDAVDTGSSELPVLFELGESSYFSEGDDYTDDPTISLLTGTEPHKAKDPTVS
As to the kind of experiment: inhibition of MG132-induced HSE-luciferase signal, confirmation, cell-based, NIH3T3, luminescence, dose retest (AID 2382).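 Further: NIH3T3 fibroblasts with HSF1-driven luciferase reporter stressed by proteasome inhibitor MG132; luminescence from HSF1-driven luciferase expression after 8 hours of MG132 stress.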 In kind it is functional.

For assay [4], the target named is DNA damage-inducible transcript 3 protein (Mus musculus, UniProt P35639). It counts as functional, Cricetulus griseus.
Chain of DNA damage-inducible transcript 3 protein (P35639 whole entry): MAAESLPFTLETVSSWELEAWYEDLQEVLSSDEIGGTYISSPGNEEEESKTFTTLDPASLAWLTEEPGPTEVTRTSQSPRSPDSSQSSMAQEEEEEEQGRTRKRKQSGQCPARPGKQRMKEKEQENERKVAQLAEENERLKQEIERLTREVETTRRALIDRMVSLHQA
Assay [5] in a line: Intein inhibitors as potential Tuberculosis drugs, a cytotoxicity screen. [Related pubchem assays (depositor defined):AID2221, AID2223, AID434968, AID435010, AID449749, AID449750, AID489010]. It counts as functional.
The target in assay [6] is T2, Sentrin-specific protease 8. It counts as functional.
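Wherever CC50 is given: cells exposed to compound for 72 hours before luminescence readout.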

With `Oc1ccccc1/C=C/c1noc(-c2ccccc2O)n1`, the IC50 was 2.5 µM (active) in assay [1] and 43 µM (active) in assay [2].
On to `Cc1nn(-c2ccccc2)c(Cl)c1CN(C(=O)CCl)c1ccc(Cl)cc1`, for which the concentration for a half-maximal effect (EC50) in assay [3] is 1.57 µM (active). In addition, the “Absolute IC50 (CHOP)” value in assay [4] was found to be 10 µM. The CC50 in assay [5] is 2.06 µM (active).
For the compound `COc1ccccc1N1C(=O)Cc2ccccc2C1=O`, the IC50 in assay [6] is > 100 µM (inactive).

Broadly, the IC50 is the concentration at which inhibition is half-maximal. As a reminder, the EC50 is the concentration that produces a half-maximal response. The CC50 is the concentration at which the toxic effect on the cells reaches its halfway point.
